{
  "source": "patent US6492303B1",
  "about": "“Compositions for protecting a plant from a disease and using method thereof” (priority 1998, dated 2002)",
  "key": {"Soybean": {"tested_on": "Soybean", "conditions": "500 ml per stock sprayed on foliage, aboveground part 72 hours after spraying; Non-treating Section = 100", "procedure": "(§1) Above plants in the age of 5-6 blades were employed for the test. […] The application for MG3 and M1 was executed in the form of spraying on the foliage by 500 ml per stock. The analysis of phytoalexins were carried out by sampling the aboveground part of plants 72 hours after the spraying, extracting the samples with acetone followed by chromatographic elution with ethyl acetate through a silica gel, and finally analyzing on an HPLC instrument."}, "Grape": {"tested_on": "Grape", "conditions": "500 ml per stock sprayed on foliage, aboveground part 72 hours after spraying; Non-treating Section = 100", "procedure": "as §1"}, "rice plant “Nihonbare” [1]": {"tested_on": "rice plant “Nihonbare”", "test": "Test 1: production of Sakuranetin and Momilactone-A in wounded rice blades treated with DL-methionine/D-glucose solutions", "assay_type": "in vivo", "conditions": "rice fifth blades, 25 μl test solution on 1 mm cuts, 60 hours at 25° C. under light; detected amount per cut", "experimental": "The structural formula of Sakuranetin is shown in Formula 1, and of Momilactone-A in Formula 2. [drawing 1]\nA control section was set up similarly except using 25 μl of distilled water only.\nUnit: ng/spot (detected amount per cut)"}, "Tomato": {"tested_on": "Tomato", "conditions": "500 ml per stock sprayed on foliage, aboveground part 72 hours after spraying; Non-treating Section = 100", "procedure": "as §1"}, "Carrot": {"tested_on": "Carrot", "conditions": "500 ml per stock sprayed on foliage, aboveground part 72 hours after spraying; Non-treating Section = 100", "procedure": "as §1"}, "Eggplant": {"tested_on": "Eggplant", "conditions": "500 ml per stock sprayed on foliage, aboveground part 72 hours after spraying; Non-treating Section = 100", "procedure": "as §1"}, "Chinese cabbage": {"tested_on": "Chinese cabbage", "conditions": "500 ml per stock sprayed on foliage, aboveground part 72 hours after spraying; Non-treating Section = 100", "procedure": "as §1"}, "[2]": {"tested_on": "rice blight (Pyricularia oryzae)", "assay_type": "in vivo", "conditions": "rice “Nihonbare”, 100 ml sprayed on foliage 24 hours before inoculation, measured ten days after inoculation; Control Section 25.1"}, "Podded pea": {"tested_on": "Podded pea", "conditions": "500 ml per stock sprayed on foliage, aboveground part 72 hours after spraying; Non-treating Section = 100", "procedure": "as §1"}, "Potato": {"tested_on": "Potato", "conditions": "500 ml per stock sprayed on foliage, aboveground part 72 hours after spraying; Non-treating Section = 100", "procedure": "as §1"}, "Beat": {"tested_on": "Beat", "conditions": "500 ml per stock sprayed on foliage, aboveground part 72 hours after spraying; Non-treating Section = 100", "procedure": "as §1"}, "Tobacco": {"tested_on": "Tobacco", "conditions": "500 ml per stock sprayed on foliage, aboveground part 72 hours after spraying; Non-treating Section = 100", "procedure": "as §1"}, "rice plant “Nihonbare” [3]": {"tested_on": "rice plant “Nihonbare”", "test": "Test 11: production of Sakuranetin and Momilactone-A in wounded rice blades treated with L-cysteine/D-glucose and comparative solutions", "conditions": "rice fifth blades, 25 μl test solution on 1 mm cuts, 60 hours at 25° C. under light"}, "[4]": {"tested_on": "various pathogenic bacteria of plants including Pyricularia oryzae", "conditions": "antibacterial activity; stated as known, no test described; cited from earlier work"}},
  "data": [
    {"smiles": "CSCCC(N)C(=O)O", "note": "(racemic) [Section M1, DL-methionine]", "values": [
      {"measurement": "Griceorin (Soybean), produced amount per unit weight", "setting": "Soybean", "value": "1,910"},
      {"measurement": "α-Vinipherin (Grape), produced amount per unit weight", "setting": "Grape", "value": 962},
      {"measurement": "Amount of Momilactone-A", "setting": "rice plant “Nihonbare” [1]", "value": 55.89, "unit": "ng/spot"},
      {"measurement": "Amount of Sakuranetin", "setting": "rice plant “Nihonbare” [1]", "value": 122.56, "unit": "ng/spot"},
      {"measurement": "Ricitin (Tomato), produced amount per unit weight", "setting": "Tomato", "value": "10,039"},
      {"measurement": "6-Methoxymelain (Carrot), produced amount per unit weight", "setting": "Carrot", "value": "3,222"},
      {"measurement": "Lubimin (Eggplant), produced amount per unit weight", "setting": "Eggplant", "value": "23,070"},
      {"measurement": "Blacinin (Chinese cabbage), produced amount per unit weight", "setting": "Chinese cabbage", "value": "18,600"},
      {"measurement": "Necrosis Ratio = (necrosis area + decay area)/total area", "setting": "[2]", "value": 7.8, "unit": "%"},
      {"measurement": "Pisatin (Podded pea), produced amount per unit weight", "setting": "Podded pea", "value": "4,522"},
      {"measurement": "Ricitin (Potato), produced amount per unit weight", "setting": "Potato", "value": 590},
      {"measurement": "Vetablugarin (Beat), produced amount per unit weight", "setting": "Beat", "value": "1,810"},
      {"measurement": "Capsydiol (Tobacco), produced amount per unit weight", "setting": "Tobacco", "value": "1,907"}
    ]},
    {"smiles": "N[C@@H](CCC(=O)N[C@@H](CS)C(=O)NCC(=O)O)C(=O)O", "note": "[Section GT1, Glutathione of reduced type]", "values": [
      {"measurement": "Amount of Momilactone-A", "setting": "rice plant “Nihonbare” [3]", "value": "not detected"},
      {"measurement": "Amount of Sakuranetin", "setting": "rice plant “Nihonbare” [3]", "value": "not detected"}
    ]},
    {"smiles": "N.N.O=S(=O)(O)O", "note": "[Section AS1, Ammonium sulfate]", "values": [
      {"measurement": "Amount of Momilactone-A", "setting": "rice plant “Nihonbare” [3]", "value": "not detected"},
      {"measurement": "Amount of Sakuranetin", "setting": "rice plant “Nihonbare” [3]", "value": "not detected"}
    ]},
    {"smiles": "COc1cc(O)c2c(c1)O[C@H](c1ccc(O)cc1)CC2=O", "note": "[Sakuranetin]", "values": [
      {"measurement": "ED50", "setting": "[4]", "value": 15, "unit": "ppm"}
    ]},
    {"smiles": "N[C@@H](CS)C(=O)O", "note": "[Section C1, L-cysteine]", "values": [
      {"measurement": "Amount of Momilactone-A", "setting": "rice plant “Nihonbare” [3]", "value": 38.99, "unit": "ng/spot"},
      {"measurement": "Amount of Sakuranetin", "setting": "rice plant “Nihonbare” [3]", "value": 79.10, "unit": "ng/spot"}
    ]},
    {"smiles": "O=C[C@H](O)[C@@H](O)[C@H](O)[C@H](O)CO", "note": "[Section GL1, D-glucose]", "values": [
      {"measurement": "Amount of Momilactone-A", "setting": "rice plant “Nihonbare” [3]", "value": "not detected"},
      {"measurement": "Amount of Sakuranetin", "setting": "rice plant “Nihonbare” [3]", "value": "not detected"}
    ]},
    {"smiles": "C=C[C@]1(C)CC[C@@H]2C(=C[C@H]3OC(=O)[C@@]4(C)C(=O)CC[C@@]2(C)[C@@H]34)C1", "note": "[Momilactone-A]", "values": [
      {"measurement": "ED50", "setting": "[4]", "value": 15, "unit": "ppm"}
    ]}
  ]
}
